Type in all cases: cell-based
For one assay, the system named is E. coli. In words: MIC shift assay of antibiotics (broth microdilution). To be noted: E. coli (SCR1); compd. concentration 4.0 μM; colistin MIC 0.5-1.0 μg/mL. How it is done: Minimum inhibitory concentration (MIC) shift assays were performed to determine if the test compounds could alter the MIC of existing antibacterial drugs (e.g., ciprofloxacin and colistin) for E. coli, Acinetobacter baumannii, Klebsiella pneumoniae, Pseudomonas aeruginosa, and Enterobacter cloacae. The MIC shift assay is based on the standard broth microdilution MIC determination protocol of Wiegand et al, Nat Protoc. 3(2):163-75 (2008), with slight modifications that allow for the screening of up to seven test compounds in a single plate.
On the day before an assay, bacteria were grown overnight in cation-adjusted Mueller Hinton broth (CAMHB; Teknova, Hollister, Calif.) at 37° C. in an orbital shaker and sub-cultured at a 1:200 dilution the following morning. The cells were grown to OD600=0.5 to 0.8 and then diluted to OD600=0.01. From a serial dilution of each antibiotic at (50 μL of 2× concentrated stock solutions) several concentrations were added to the wells of a sterile, transparent round-bottom 96-well plate (Phenix Research Products, Candler, N.C.), and diluted cells (50 μL) were added to the plates for a starting OD600 of 0.005. Then, a test compound (2.5 μL) was added to each well to give a final concentration of 4 or 10 μM. A row of wells lacking test compound but containing the antibiotic was used to determine the MIC of that antibiotic alone. A column of wells lacking both antibiotic and test compound served as a growth control, and an additional column containing only CAMHB was included as a sterile blank control.
The plates were incubated for 18 to 20 h at 37° C. in an orbital shaker, and the cell density (OD600) was determined the following day in a microplate reader (PolarStar Optima, BMG Labtech). The MIC shift was determined by comparing the MIC of the antibiotic alone to the MIC of the antibiotic plus test compound.
(In general: Dilution methods test growth across graded concentrations, often in twofold steps.)

Assay [1] relates to Acinetobacter baumannii (Ab23). Described as above. To be noted: for Colistin MIC Shift: A. baumannii (MDR Ab), compd. concentration 4.0 μM, colistin MIC 0.5-1.0 μg/mL; for colistin MIC shift, Ab23 at (compd concentration): fold shift of colistin MIC, nc = no changeover or no shift. In a few lines: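 Following a modified Wiegand broth microdilution protocol, colistin serial dilutions with or without test compound were set up in round-bottom 96-well plates and inoculated with A. baumannii cells to a starting OD600 of 0.005. Plates were shaken at 37° C. for 18 to 20 h and read at OD600. The fold shift was calculated from colistin MIC alone versus colistin MIC with test compound, with growth and medium-only blank controls.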

Assay [2] has as its system panel of Gram-negative bacteria with different colistin susceptibilities. Put plainly: Fractional inhibitory concentration index (FICI) checkerboard assay with colistin. To be noted: for FICI Values of Colistin and Potentiator in Resistant Bacteria: FICI values of ≦0.5 indicate synergy. How it is done:
The fractional inhibitory concentration index (FICI) was determined in combination with colistin using the broth microdilution susceptibility test method as described by the CLSI (Methods for Dilution Antimicrobial Susceptibility Tests for Bacteria That Grow Aerobically; Approved Standard-Ninth Edition. 2012. CLSI document M07-A9. CLIS, 940 West Valley Road, Suite 1400, Wayne, Pa. 19087-1898 USA). This checkerboard assay was set up with decreasing concentrations of colistin across the plate from left to right and decreasing concentrations of potentiator from top to bottom. The FICI values were then calculated using the methods of Lorian et al. (Antibiotics in Laboratory Medicine—Fifth Edition. 2005. Lippincott, Williams, & Wilkins, Philadelphia, Pa.). A panel of Gram-negative bacteria with different colistin susceptibilities were tested.
Each of the tested compounds synergized with colistin in the three species of colistin-resistant bacteria tested.

Where [3] appears, read: colistin-resistant A. baumannii.
Where [4] appears, read: colistin-resistant K. pneumoniae.
[5] abbreviates: colistin-resistant P. aeruginosa.

On to `CNCCCN(C)c1nc(-c2cccc(-c3cc(C(F)(F)F)ccc3F)c2)nc2c(C)cccc12` [compound 487], for which the results for the “Colistin MIC Shift” value (in the assay on E. coli; in assay [1]) were 16x and 8x, respectively. Further, in assay [1] (compound concentration 4 μM), the “colistin MIC shift, Ab23 at (compd concentration)” value (from here on “colistin MIC shift, Ab23”) stood at 32x.

As to `CC(N)C(=O)n1cc(-c2ccc(Cl)c(Cl)c2)c2cc(Cl)ccc21` (stereo not shown) [compound 361], the “Colistin MIC Shift” value (with E. coli; in assay [1]) was 4x throughout. The “colistin MIC shift, Ab23” value in assay [1] (compound concentration 2 μM) came out at 16x.

In the case of `CN(C)CCCNc1nc(-c2cc(Br)cc(C(F)(F)F)c2)nc2c(Br)cccc12` [compound 338], the “Colistin MIC Shift” value (in the assay with E. coli; in assay [1]) was 4x throughout. For the same compound, in assay [1] (compound concentration 2 μM), the “colistin MIC shift, Ab23” value is given as 8-16x.

Regarding `CCN(CC)CCCC(C)Nc1nc(-c2cc(-c3ccccc3)cc(C(F)(F)F)c2)nc2c(C)cccc12` (stereo not shown) [compound 492], the “Colistin MIC Shift” value (in the assay on E. coli; in assay [1]) was 8x throughout. Besides, in assay [1] (compound concentration 4 μM), the “colistin MIC shift, Ab23” value is on record as 32x.

Turning to `Cc1cccc2c(NCCCN(C)C)nc(-c3cc(Cl)cc(C(F)(F)F)c3)nc12` [compound 506], the “Colistin MIC Shift” value with E. coli is reported as 8x; in assay [1], 4x. Further, the “colistin MIC shift, Ab23” value in assay [1] (compound concentration 4 μM) is 16x.

In the case of `CN(C)CCCNc1nc(-c2cccc(-c3cc(C(F)(F)F)ccc3F)c2)nc2c(C(F)(F)F)cccc12` [IV], the results for the “MIC Shift of Colistin and Potentiator in Resistant Bacteria” value in assay [2] (setting [3]), in assay [2] (setting [4]) and in assay [2] (setting [5]) were 133 x, 512 x and 33 x, respectively. The “FICI Values of Colistin and Potentiator in Resistant Bacteria” value in assay [2] (setting [3]) is recorded as 0.24; in assay [2] (setting [4]) it was 0.21; in assay [2] (setting [5]), 0.27.

For the compound `Cc1cccc2c(NCCCN(C)C)nc(-c3cc(C(F)(F)F)cc(C(F)(F)F)c3)nc12` [compound 339], the “Colistin MIC Shift” value (with E. coli; in assay [1]) was 8x each time. For the same compound, in assay [1] (compound concentration 2 μM), the “colistin MIC shift, Ab23” value is given as 8-16x.

Turning to `CN(C)CCCNc1nc(-c2cc(Br)cc(C(F)(F)F)c2)nc2c(C(F)(F)F)cccc12` [compound 505], the “Colistin MIC Shift” value came to 8x in the assay on E. coli and 4x in assay [1]. Further, the “colistin MIC shift, Ab23” value in assay [1] (compound concentration 4 μM) stood at 32x.

As for `Cc1cccc2c(NCCCN3CCNCC3)nc(-c3cc(Br)cc(C(F)(F)F)c3)nc12` [compound 348], the “Colistin MIC Shift” value was found to be 16x in the assay on E. coli and 8x in assay [1]. Further, the “colistin MIC shift, Ab23” value in assay [1] (compound concentration 2 μM) is 8-16x.

Take `Fc1ccc2c(/C=C/c3ccc(F)c(C(F)(F)F)c3)c[nH]c2c1` [compound 385]: the “colistin MIC shift, Ab23” value in assay [1] (compound concentration 4 μM) was 8-16 x.

In the case of `Cc1cccc2c(NCCCN(C)C)nc(-c3cn(Cc4cccc(Cl)c4)c4c(Cl)cccc34)nc12` [compound 579], in assay [1] (compound concentration 4 μM), the “colistin MIC shift, Ab23” value came out at 16x.

In the case of `Cc1cccc2c(NCCCN(C)C)nc(-c3cc(-c4ccccc4Cl)cc(C(F)(F)F)c3)nc12` [compound 513], the “colistin MIC shift, Ab23” value in assay [1] (compound concentration 4 μM) is on record as 32x.

Take `Cc1cccc2c(NCCCN3CCN(C)CC3)nc(-c3cc(Br)cc(C(F)(F)F)c3)nc12` [compound 354]: in assay [1] (compound concentration 2 μM), the “colistin MIC shift, Ab23” value is listed as 8-16x.

On to `Cc1cccc2c(NCCCN(C)C)nc(-c3cccc(-c4ccc(C(F)(F)F)c(F)c4)c3)nc12` [compound 355], for which the “colistin MIC shift, Ab23” value in assay [1] (compound concentration 2 μM) was 8-16x.

Regarding `CCN(CC)CCCC(C)Nc1nc(/C=C/c2ccc(Cl)c(Cl)c2)nc2c(Cl)cccc12` (racemic) [compound 320], the “colistin MIC shift, Ab23” value in assay [1] (compound concentration 4 μM) is 2x.

Take `Cc1cccc2c(NCCCN(C)C)nc(-c3cc(-c4ccccc4C(F)(F)F)cc(C(F)(F)F)c3)nc12` [compound 509]: the “colistin MIC shift, Ab23” value in assay [1] (compound concentration 4 μM) was found to be 64x.

As to `O=C(Nc1ccc(Cl)c(Cl)c1)c1c[nH]c2ccc(Br)cc12` [compound 420], in assay [1] (compound concentration 2 μM), the “colistin MIC shift, Ab23” value is recorded as 16x.

For `FC(F)(F)c1cc(-c2c[nH]c3cc(Cl)c(Cl)cc23)ccc1Cl` [compound 436], in assay [1] (compound concentration 2 μM), the “colistin MIC shift, Ab23” value came to 4x.

As to `N#Cc1ccc2[nH]cc(/C=C/c3ccc(Cl)c(Cl)c3)c2c1` [compound 375], in assay [1] (compound concentration 4 μM), the “colistin MIC shift, Ab23” value amounted to 2x.

For `Fc1ccc2[nH]cc(/C=C/c3ccc(Cl)c(Cl)c3)c2c1` [compound 368], in assay [1] (compound concentration 4 μM), the “colistin MIC shift, Ab23” value is 16-32x.

For the compound `CN(C)CCCNc1nc(-c2cccc(-c3ccccc3)c2)nc2cc(C(F)(F)F)ccc12` [compound 480], in assay [1] (compound concentration 4 μM), the “colistin MIC shift, Ab23” value is reported as 4x.

`FC(F)(F)c1ccc2c(-c3ccc(Cl)c(Cl)c3)nn(Cc3ccc(Cl)cc3)c2c1` [compound 391, 1-(4-chlorobenzyl)-3-(3,4-dichlorophenyl)-6-(trifluoromethyl)-1H-indazole]: the “colistin MIC shift, Ab23” value in assay [1] (compound concentration 4 μM) is 16x.

Regarding `CNCCCNc1nc(-c2cn(Cc3ccc(Cl)cc3)c3c(Cl)cccc23)nc2c(C)cccc12` [compound 583], the “colistin MIC shift, Ab23” value in assay [1] (compound concentration 4 μM) is given as 4x.

With `Cc1cccc2c(NCCCN(C)C)nc(-c3cccc(-c4cccc(C(F)(F)F)c4)c3)nc12` [compound 466], in assay [1] (compound concentration 4 μM), the “colistin MIC shift, Ab23” value is given as 8-16x.

Turning to `O=C(c1ccc(Cl)c(Cl)c1)n1nc(-c2ccc(Cl)c(Cl)c2)c2ccc(C(F)(F)F)cc21` [compound 392, (3,4-dichlorophenyl)(3-(3,4-dichlorophenyl)-6-(trifluoromethyl)-1H-indazol-1-yl)methanone], the “colistin MIC shift, Ab23” value in assay [1] (compound concentration 4 μM) was 16x.

As to `Cc1cccc2c(NCCCN3CCOCC3)nc(-c3cc(Br)cc(C(F)(F)F)c3)nc12` [compound 459], the “colistin MIC shift, Ab23” value in assay [1] (compound concentration 10 μM) worked out at 8x.

Take `CCN(CC)CCCC(C)Nc1nc(-c2cccc(-c3ccc(C(F)(F)F)c(F)c3)c2)nc2c(C)cccc12` (stereo not shown) [compound 476]: in assay [1] (compound concentration 4 μM), the “colistin MIC shift, Ab23” value was 16x.

On to `CCN(CC)CCCC(C)Nc1nc(/C=C/c2ccc(Cl)c(Cl)c2)nc2ccc(Br)cc12` (racemic) [compound 318], for which, in assay [1] (compound concentration 4 μM), the “colistin MIC shift, Ab23” value worked out at 2x.

As for `Fc1cc(-c2n[nH]c3ccc(Cl)cc23)ccc1C(F)(F)F` [compound 539], the “colistin MIC shift, Ab23” value in assay [1] (compound concentration 10 μM) came out at 4x.

`Clc1ccc(NCc2c[nH]c3ccc(Br)cc23)cc1Cl` [compound 418]: the “colistin MIC shift, Ab23” value in assay [1] (compound concentration 4 μM) came out at 16 x.

In the case of `CN(C)CCCNc1nc(/C=C/c2ccc(Cl)c(Cl)c2)nc2c([N+](=O)[O-])cccc12` [compound 302], the “colistin MIC shift, Ab23” value in assay [1] (compound concentration 4 μM) came to 16x.

`CN(C)CCCNc1nc(-c2cc(Br)cc(C(F)(F)F)c2)nc2ccc(Br)cc12` [compound 515]: in assay [1] (compound concentration 4 μM), the “colistin MIC shift, Ab23” value is reported as 8x.

In the case of `FC(F)(F)c1ccc2c(-c3ccccc3C(F)(F)F)n[nH]c2c1` [compound 547], the “colistin MIC shift, Ab23” value in assay [1] (compound concentration 10 μM) was 1x.

Take `CNCCCNc1nc(-c2cccc(-c3cccc(C(F)(F)F)c3)c2)nc2c(C)cccc12` [compound 478]: the “colistin MIC shift, Ab23” value in assay [1] (compound concentration 4 μM) is recorded as 4x.

Consider `Cc1cccc2c(NCCCN3CCCCC3)nc(-c3cc(Br)cc(C(F)(F)F)c3)nc12` [compound 347], for which the “colistin MIC shift, Ab23” value in assay [1] (compound concentration 2 μM) is recorded as 8-16x.

As for `CCN(CC)CCCC(C)Nc1nc(/C=C/c2ccc(Cl)cc2)nc2cc(Cl)ccc12` (racemic) [compound 310], the “colistin MIC shift, Ab23” value in assay [1] (compound concentration 10 μM) was determined as 8x.

In the case of `CCN(CC)CCCC(C)Nc1nc(-c2cccc(-c3ccc(C(F)(F)F)cc3F)c2)nc2c(C)cccc12` (stereo not shown) [compound 471], the “colistin MIC shift, Ab23” value in assay [1] (compound concentration 4 μM) is on record as 8x.

The record behind these values is patent publication US20160168140A1, “HETEROCYCLIC COMPOUNDS AS ANTIBIOTIC POTENTIATORS” (priority 2014, published 2016).
